Data: patent US6007823A, “Simmondsin concentrate from jojoba” (The United States of America as represented by the …, priority 1998, dated 1999)

Experiments:
[1] = Solubility of didemethyl simmondsin in absolute ethanol; type: physicochemical
Experimental: DWE, 1 gram, was stirred 30 min with 20 ml of either acetone, acetonitrile,chloroform, methanol, water, ethanol, isopropanol, 95/5 isopropanol/water or 5/95 methanol/chloroform. Supernatant was filtered, dried, weighed, and analyzed for simmondsin and analogues. […] Both the amount of simmondsins extracted and their enrichment in the extract are important in choosing a selective solvent. Therefore, selectivity was calculated as enrichment times concentration for each component, simmondsin, simmondsin ferulate, demethylsimmondsin and didemethyl simmondsin as well as the total for all four components and plotted against solvent composition and solvent to solute ratio. For simmondsin, selectivity or SIMM-- X=[(concentration of simmondsin in extract)/(concentration of simmondsin in DWE)][weight of simmondsin in extract/weight of simmondsin in DWE].

[2] = statement without test; cited from earlier work
chickens = settings: Cokeleare et al. 1995; cited from earlier work
mice = settings: Cokeleare et al. 1995; cited from earlier work
rats = settings: Cokeleare et al. 1995; cited from earlier work

Row | SMILES | Solubility in absolute ethanol [1] | Bioactivity [2] | Food intake (chickens) | Food intake (mice) | Food intake (rats)
1 | N#CC=C1C(OC2OC(CO)C(O)C(O)C2O)CC(O)C(O)C1O (centres unmarked) [didemethyl simmondsin] | very limited | non-bioactive | – | – | –
2 | CO[C@H]1[C@@H](OC)C[C@@H](O[C@@H]2O[C@H](CO)[C@@H](O)[C@H](O)[C@H]2O)/C(=C\C#N)[C@@H]1O [simmondsin] | – | – | reduces food intake | reduces food intake | reduces food intake
